Legend:
Test in all cases: Greenhouse test, solo and combination, post-emergence, 20 DAT
PAPRH = format: in vivo, Papaver rhoeas
Experimental: (§1) The test plants have been seeded, separately for each species, in plastic containers in sandy loamy soil containing 5% of organic matter.
(§2) For the post-emergence treatment, the plants were first grown to the 2 leaf station (GS 12) and applied at GS 12-19 depending on the species. The herbicidal compositions were suspended or emulsified in water as distribution medium and sprayed using finely distributing nozzles.
(§3) The plants have been cultivated due to their individual requirements at 10-25° C. and 20-35° C. The plants were irrigated due to their necessity.
(§4) The racemic mixture (±)-2-exo-(2-Methylbenzyloxy)-1-methyl-4-isopropyl-7-oxabicyclo[2.2.1]heptane was used as herbicide A and formulated as emulsifiable concentrate having an active ingredient concentration of 750 g/l.
(§5) Cyhalofop-butyl (herbicide B.5) was used as an emulsifiable concentrate (EC) formulation having an active ingredient concentration of 200 g/l.
(§6) Metsulfuron-methyl (herbicide B.53) was used as a water soluble granule (SG) formulation having an active ingredient concentration of 20%.
(§7) Bispyribac-sodium (herbicide B.23) was used as a soluble concentrate (SL) formulation having an active ingredient concentration of 408 g/l.
(§8) Quizalofop-P-ethyl (herbicide B.217) was used as a suspension concentrate (SC) formulation having an active ingredient concentration of 106 g/l.
(§9) In the following experiments, the herbicidal activity for the individual herbicide compounds (solo and mixture applications) was assessed 20 days after treatment (DAT).
(§10) The evaluation for the damage on undesired weeds caused by the chemical compositions was carried out using a scale from 0 to 100%, compared to the untreated control plants. Here, 0 means no damage and 100 means complete destruction of the plants.
(§11) The plants used in the greenhouse experiments belonged to the following species:
(§12) E=X+Y−(X·Y/100) • where X=effect in percent using herbicide A at an application rate a; • Y=effect in percent using herbicide B at application rate b; • E=expected effect (in %) of herbicide A+herbicide B at application rates a+b.
(§13) The value E corresponds to the effect (plant damage or injury) which is to be expected if the activity of the individual compounds is additive. If the observed effect is higher than the value E calculated according to the Colby equation, a synergistic effect is present.
(§14) Tables 3 to 6 below relate the herbicidal activity, in greenhouse trials, of the individual actives and the combination applied at different rates and ratios, in post-emergence application at 20 days after treatment (DAT).

MATIN = format: in vivo, Matricaria inodora
Experimental: as §1, §2, §3, §4, §5, §6, §7, §8, §9, §10, §11, §12, §13, §14

LOLRI = format: in vivo, Lolium rigidum
Experimental: as §1, §2, §3, §4, §5, §6, §7, §8, §9, §10, §11, §12, §13, §14

BROST = format: in vivo, Bromus sterilis
Experimental: as §1, §2, §3, §4, §5, §6, §7, §8, §9, §10, §11, §12, §13, §14

GALAP = format: in vivo, Galium aparine
Experimental: as §1, §2, §3, §4, §5, §6, §7, §8, §9, §10, §11, §12, §13, §14

BRSNW = format: in vivo, Brassica napus
Experimental: as §1, §2, §3, §4, §5, §6, §7, §8, §9, §10, §11, §12, §13, §14

ALOMY = format: in vivo, Alopecurus myosuroides
Experimental: as §1, §2, §3, §4, §5, §6, §7, §8, §9, §10, §11, §12, §13, §14

CCCCOC(=O)[C@@H](C)Oc1ccc(Oc2ccc(C#N)cc2F)cc1 [cyhalofop-butyl]
Herbicidal activity (PAPRH; solo application 12.5 g ai/ha): 0%
Herbicidal activity (PAPRH; solo application 50 g ai/ha): 0%
Herbicidal activity (MATIN; solo application 100 g ai/ha): 0%
Herbicidal activity (LOLRI; solo application 12.5 g ai/ha): 25%
Herbicidal activity (BROST; solo application 100 g ai/ha): 0%
Herbicidal activity (GALAP; solo application 50 g ai/ha): 0%
Herbicidal activity (GALAP; solo application 100 g ai/ha): 0%
Herbicidal activity (BRSNW; solo application 100 g ai/ha): 0%
Herbicidal activity (ALOMY; solo application 25 g ai/ha): 5%
Herbicidal activity (ALOMY; solo application 50 g ai/ha): 20%

COC(=O)c1ccccc1S(=O)(=O)NC(=O)Nc1nc(C)nc(OC)n1 [metsulfuron-methyl]
Herbicidal activity (PAPRH; solo application 1 g ai/ha): 0%
Herbicidal activity (PAPRH; solo application 4 g ai/ha): 50%
Herbicidal activity (PAPRH; solo application 8 g ai/ha): 98%
Herbicidal activity (MATIN; solo application 1 g ai/ha): 90%
Herbicidal activity (MATIN; solo application 2 g ai/ha): 90%
Herbicidal activity (MATIN; solo application 4 g ai/ha): 85%
Herbicidal activity (MATIN; solo application 8 g ai/ha): 90%
Herbicidal activity (LOLRI; solo application 1 g ai/ha): 10%
Herbicidal activity (GALAP; solo application 4 g ai/ha): 30%
Herbicidal activity (GALAP; solo application 8 g ai/ha): 25%
Herbicidal activity (BRSNW; solo application 1 g ai/ha): 90%
Herbicidal activity (BRSNW; solo application 2 g ai/ha): 95%
Herbicidal activity (BRSNW; solo application 8 g ai/ha): 98%
Herbicidal activity (ALOMY; solo application 1 g ai/ha): 0%

CCOC(=O)[C@@H](C)Oc1ccc(Oc2cnc3cc(Cl)ccc3n2)cc1 [quizalofop-P-ethyl]
Herbicidal activity (PAPRH; solo application 15 g ai/ha): 25%
Herbicidal activity (MATIN; solo application 15 g ai/ha): 0%
Herbicidal activity (MATIN; solo application 30 g ai/ha): 0%
Herbicidal activity (MATIN; solo application 60 g ai/ha): 10%
Herbicidal activity (LOLRI; solo application 15 g ai/ha): 80%
Herbicidal activity (LOLRI; solo application 30 g ai/ha): 95%
Herbicidal activity (BROST; solo application 15 g ai/ha): 15%
Herbicidal activity (BROST; solo application 30 g ai/ha): 50%
Herbicidal activity (BROST; solo application 60 g ai/ha): 80%
Herbicidal activity (BROST; solo application 120 g ai/ha): 95%
Herbicidal activity (GALAP; solo application 15 g ai/ha): 0%
Herbicidal activity (GALAP; solo application 30 g ai/ha): 0%
Herbicidal activity (BRSNW; solo application 120 g ai/ha): 0%
Herbicidal activity (ALOMY; solo application 15 g ai/ha): 60%
Herbicidal activity (ALOMY; solo application 30 g ai/ha): 65%
Herbicidal activity (ALOMY; solo application 120 g ai/ha): 85%

— US12336536B2, “Method for controlling herbicide resistant or tolerant weeds” (BASF Agro B.V., priority 2015, dated 2025)
